This note sets out measurements from ChEMBL document CHEMBL1201862, “PubChem BioAssay data set” (2004).

In assay [1] the target is Ion channel NompC (Danio rerio, UniProt Q7T1G6). Nature of the assay: Fluorescence counterscreen assay for TRPML3 agonists: dose response cell-based high-throughput screening assay to identify agonists of the transient receptor potential channel N1 (TRPN1). [Related pubchem assays: 1526, 1424, 1448 ]. The format is functional.
In assay [2] the target is Mucolipin-3 (Homo sapiens, UniProt Q8TDD5). Nature of the assay: Dose response cell-based high-throughput screening assay for agonists of the transient receptor potential channel ML3 (TRPML3). [Related pubchem assays: 1526, 1424, 1448 ]. The class given is functional.
Mucolipin-3, sequence (Q8TDD5 whole entry): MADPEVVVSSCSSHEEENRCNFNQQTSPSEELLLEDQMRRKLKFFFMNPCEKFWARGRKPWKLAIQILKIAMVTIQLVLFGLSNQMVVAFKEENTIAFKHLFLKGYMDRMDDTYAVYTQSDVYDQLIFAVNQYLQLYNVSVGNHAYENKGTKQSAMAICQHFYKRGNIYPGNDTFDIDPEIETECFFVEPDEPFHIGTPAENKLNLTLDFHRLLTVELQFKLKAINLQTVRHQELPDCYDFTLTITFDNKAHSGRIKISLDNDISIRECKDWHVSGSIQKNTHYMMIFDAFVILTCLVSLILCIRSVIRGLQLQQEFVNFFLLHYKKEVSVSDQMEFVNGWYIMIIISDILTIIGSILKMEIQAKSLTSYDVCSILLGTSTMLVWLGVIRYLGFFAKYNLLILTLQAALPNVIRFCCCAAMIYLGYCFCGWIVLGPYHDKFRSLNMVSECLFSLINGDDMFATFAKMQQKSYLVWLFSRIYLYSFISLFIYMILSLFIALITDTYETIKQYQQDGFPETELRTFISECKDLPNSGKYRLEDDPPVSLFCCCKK
A short description of assay [3]: growth suppression of PTEN-null colon cells, dose response, cell-based, HCT116 PTEN knockout (AID 1047).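 Also: HCT116 colon tumor cells with PTEN knocked out; cells exposed to compound for 60 hours before readout; potency for loss of cell viability measured by luminescence.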 The class given is functional.
For assay [4], the target named is T1, Replicative DNA helicase DnaB (Mycobacterium tuberculosis, UniProt P9WMR3).
T1 sequence (P9WMR3 whole entry): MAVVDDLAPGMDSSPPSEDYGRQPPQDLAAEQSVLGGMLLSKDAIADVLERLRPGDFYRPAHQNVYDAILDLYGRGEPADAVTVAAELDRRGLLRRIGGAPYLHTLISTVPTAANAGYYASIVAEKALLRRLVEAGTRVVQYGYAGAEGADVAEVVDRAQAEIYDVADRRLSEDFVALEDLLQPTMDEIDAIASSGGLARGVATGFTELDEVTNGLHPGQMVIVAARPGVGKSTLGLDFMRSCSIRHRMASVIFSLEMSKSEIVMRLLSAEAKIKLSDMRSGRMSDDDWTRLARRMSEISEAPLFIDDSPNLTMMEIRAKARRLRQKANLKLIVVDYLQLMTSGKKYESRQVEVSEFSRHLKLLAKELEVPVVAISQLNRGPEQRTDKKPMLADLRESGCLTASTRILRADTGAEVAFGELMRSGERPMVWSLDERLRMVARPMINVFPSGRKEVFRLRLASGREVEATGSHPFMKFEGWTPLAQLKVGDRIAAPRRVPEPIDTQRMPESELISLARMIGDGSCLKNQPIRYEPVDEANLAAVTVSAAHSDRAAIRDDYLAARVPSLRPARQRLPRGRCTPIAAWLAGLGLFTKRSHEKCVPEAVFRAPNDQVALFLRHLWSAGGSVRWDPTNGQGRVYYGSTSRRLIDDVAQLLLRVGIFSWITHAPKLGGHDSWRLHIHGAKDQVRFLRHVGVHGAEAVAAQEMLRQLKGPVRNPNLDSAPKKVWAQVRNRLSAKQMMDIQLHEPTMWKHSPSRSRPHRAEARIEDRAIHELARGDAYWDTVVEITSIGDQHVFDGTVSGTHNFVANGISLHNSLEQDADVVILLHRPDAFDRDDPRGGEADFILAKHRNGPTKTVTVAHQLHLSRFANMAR
Nature of the assay: DnaB intein splicing inhibitors, dose response, biochemical, cell-free fluorescence (AID 449749). The format is functional.

The nature of assay [5]: growth suppression of beta-catenin-knockout colon cells, dose response, cell-based, HCT116, human colon tumor (AID 1045).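 Also: HCT116 colon tumor cells with beta catenin knocked out; cells exposed to compound for 60 hours.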 The class given is functional.
The target in assay [6] is Eukaryotic translation initiation factor 4E (Mus musculus, UniProt P63073). Nature of the assay: eIF4E–eIF4G protein interaction inhibitors, dose response, biochemical, TR-FRET (AID 855).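 Also: potency for disrupting eIF4E binding to eIF4GI seen as loss of FRET.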 The format is functional.
Eukaryotic translation initiation factor 4E, sequence (P63073 whole entry): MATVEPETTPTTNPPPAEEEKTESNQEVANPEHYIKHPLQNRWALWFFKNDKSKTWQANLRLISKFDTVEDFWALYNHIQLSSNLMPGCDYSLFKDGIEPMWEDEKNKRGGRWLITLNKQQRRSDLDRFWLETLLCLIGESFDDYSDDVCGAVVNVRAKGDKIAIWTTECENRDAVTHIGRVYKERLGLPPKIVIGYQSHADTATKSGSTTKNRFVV
In assay [7] the target is Estrogen receptor beta (Homo sapiens, UniProt Q92731). Nature of the assay: ERβ–SRC-3 coactivator interaction inhibitors, confirmation, orthogonal assay, biochemical, ELISA, streptavidin-HRP readout (AID 1060).
Estrogen receptor beta, sequence (Q92731 whole entry): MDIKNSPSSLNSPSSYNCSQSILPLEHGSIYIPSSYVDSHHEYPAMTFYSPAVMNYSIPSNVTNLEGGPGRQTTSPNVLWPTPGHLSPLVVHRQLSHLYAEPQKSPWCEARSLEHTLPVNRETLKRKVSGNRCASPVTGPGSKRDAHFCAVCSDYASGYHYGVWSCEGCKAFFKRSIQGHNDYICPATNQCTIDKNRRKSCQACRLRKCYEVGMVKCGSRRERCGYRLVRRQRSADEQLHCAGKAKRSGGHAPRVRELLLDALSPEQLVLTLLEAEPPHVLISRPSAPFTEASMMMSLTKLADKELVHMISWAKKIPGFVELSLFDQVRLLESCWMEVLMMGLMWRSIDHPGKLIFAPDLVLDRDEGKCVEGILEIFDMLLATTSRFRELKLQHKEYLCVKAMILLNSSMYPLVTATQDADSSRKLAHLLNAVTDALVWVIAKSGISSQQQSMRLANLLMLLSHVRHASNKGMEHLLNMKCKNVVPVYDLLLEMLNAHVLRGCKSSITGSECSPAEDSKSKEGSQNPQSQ
For assay [8], the target named is T2, Protein RecA (Mycobacterium tuberculosis, UniProt P9WHJ3).
T2 sequence (P9WHJ3 whole entry): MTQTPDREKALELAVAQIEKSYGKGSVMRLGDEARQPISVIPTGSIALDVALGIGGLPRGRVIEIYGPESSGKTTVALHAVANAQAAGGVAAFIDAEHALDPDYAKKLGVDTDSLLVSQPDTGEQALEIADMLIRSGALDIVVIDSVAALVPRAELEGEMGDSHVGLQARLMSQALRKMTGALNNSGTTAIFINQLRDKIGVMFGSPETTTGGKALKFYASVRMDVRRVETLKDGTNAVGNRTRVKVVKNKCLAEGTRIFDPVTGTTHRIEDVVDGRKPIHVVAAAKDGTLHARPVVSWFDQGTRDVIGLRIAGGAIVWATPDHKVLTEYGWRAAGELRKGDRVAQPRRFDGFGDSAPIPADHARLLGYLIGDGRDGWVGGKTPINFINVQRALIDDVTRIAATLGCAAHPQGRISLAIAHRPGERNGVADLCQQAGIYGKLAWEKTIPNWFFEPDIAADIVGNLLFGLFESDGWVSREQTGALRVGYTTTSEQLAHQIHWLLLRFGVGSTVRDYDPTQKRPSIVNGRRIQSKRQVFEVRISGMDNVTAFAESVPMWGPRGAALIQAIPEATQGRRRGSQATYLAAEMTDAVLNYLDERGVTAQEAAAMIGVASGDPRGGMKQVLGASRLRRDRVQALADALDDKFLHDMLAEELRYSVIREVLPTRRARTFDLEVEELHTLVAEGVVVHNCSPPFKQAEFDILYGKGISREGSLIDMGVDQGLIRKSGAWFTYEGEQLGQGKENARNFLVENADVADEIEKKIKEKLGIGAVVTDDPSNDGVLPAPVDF
Nature of the assay: Fluorescence Cell-Free Homogeneous Dose Retest to Identify Inhibitors of RecA-Intein Splicing Activity. [Related pubchem assays (depositor defined):AID2097, AID2223, AID489010, AID492950]. The format is functional.

Assay [9] has as its target T3, Zinc finger protein mex-5 (Caenorhabditis elegans, UniProt Q9XUB2).
T3 sequence (Q9XUB2 whole entry): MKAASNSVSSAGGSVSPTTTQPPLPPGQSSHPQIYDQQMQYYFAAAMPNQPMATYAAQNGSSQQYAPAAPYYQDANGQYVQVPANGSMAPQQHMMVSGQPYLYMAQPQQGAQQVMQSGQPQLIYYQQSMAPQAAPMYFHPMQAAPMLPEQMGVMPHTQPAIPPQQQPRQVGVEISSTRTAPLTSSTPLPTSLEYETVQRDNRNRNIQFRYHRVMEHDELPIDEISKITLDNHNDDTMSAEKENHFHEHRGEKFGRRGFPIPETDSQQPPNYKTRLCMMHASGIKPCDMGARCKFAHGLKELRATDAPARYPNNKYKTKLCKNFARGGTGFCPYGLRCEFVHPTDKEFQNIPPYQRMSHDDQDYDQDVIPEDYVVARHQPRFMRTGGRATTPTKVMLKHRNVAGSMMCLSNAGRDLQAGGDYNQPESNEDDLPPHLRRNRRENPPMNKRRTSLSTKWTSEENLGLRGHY
Nature of the assay: MEX-5/TCR-2 RNA interaction inhibitors, dose response, biochemical, C. elegans, fluorescence polarization (AID 1960).

For assay [10], the target named is T4, RNA-binding protein pos-1 (Caenorhabditis elegans, UniProt G5EF15).
T4 sequence (G5EF15 whole entry): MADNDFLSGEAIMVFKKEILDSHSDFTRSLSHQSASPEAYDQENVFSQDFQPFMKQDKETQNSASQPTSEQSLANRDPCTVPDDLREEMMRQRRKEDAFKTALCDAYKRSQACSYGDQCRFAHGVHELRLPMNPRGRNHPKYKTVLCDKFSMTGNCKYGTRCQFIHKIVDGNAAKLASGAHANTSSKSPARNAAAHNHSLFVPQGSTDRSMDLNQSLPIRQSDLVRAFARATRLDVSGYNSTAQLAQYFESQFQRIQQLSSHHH
Nature of the assay: inhibitors of POS-1/mex-3 RNA binding, dose response, biochemical, fluorescence polarization (AID 1964).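 Also: purified POS-1 fused to maltose binding protein made in E. coli; potency of compounds blocking POS-1 binding to fluorescent RNA.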

The target of assay [11] is Neuropeptide Y receptor type 2 (Homo sapiens, UniProt P49146). Nature of the assay: Fluorescence-based cell-based high-throughput dose response assay for agonists of NPY-Y2. [Related pubchem assays: 1703 (Screening assay (CNGC inhibitors).), 1359 (Screening assay (NPY-Y2 potentiators or agonists).), 1304 (Screening assay (NPY-Y1 potentiators or agonists).), 1710 (Screening assay (NPY-Y2 agonists).), 1791 (Summary AID.)]. The format is functional.
Neuropeptide Y receptor type 2, sequence (P49146 whole entry): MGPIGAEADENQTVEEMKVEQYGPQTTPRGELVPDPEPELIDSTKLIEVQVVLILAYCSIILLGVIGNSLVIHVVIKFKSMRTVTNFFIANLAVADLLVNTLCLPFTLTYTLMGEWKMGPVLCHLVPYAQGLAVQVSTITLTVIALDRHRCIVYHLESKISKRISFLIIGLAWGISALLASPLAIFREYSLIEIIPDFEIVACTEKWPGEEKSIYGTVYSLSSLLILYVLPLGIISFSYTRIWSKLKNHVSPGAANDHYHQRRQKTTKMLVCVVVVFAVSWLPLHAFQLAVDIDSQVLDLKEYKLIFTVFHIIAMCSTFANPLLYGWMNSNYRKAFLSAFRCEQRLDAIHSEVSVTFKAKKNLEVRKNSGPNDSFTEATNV

For assay [12], the target named is Neuropeptide Y receptor type 1 (Homo sapiens, UniProt P25929). Nature of the assay: Fluorescence-based counterscreen for agonists of NPY-Y2: cell-based high-throughput dose response assay for agonists of NPY-Y1. The class given is functional.
Neuropeptide Y receptor type 1, sequence (P25929 whole entry): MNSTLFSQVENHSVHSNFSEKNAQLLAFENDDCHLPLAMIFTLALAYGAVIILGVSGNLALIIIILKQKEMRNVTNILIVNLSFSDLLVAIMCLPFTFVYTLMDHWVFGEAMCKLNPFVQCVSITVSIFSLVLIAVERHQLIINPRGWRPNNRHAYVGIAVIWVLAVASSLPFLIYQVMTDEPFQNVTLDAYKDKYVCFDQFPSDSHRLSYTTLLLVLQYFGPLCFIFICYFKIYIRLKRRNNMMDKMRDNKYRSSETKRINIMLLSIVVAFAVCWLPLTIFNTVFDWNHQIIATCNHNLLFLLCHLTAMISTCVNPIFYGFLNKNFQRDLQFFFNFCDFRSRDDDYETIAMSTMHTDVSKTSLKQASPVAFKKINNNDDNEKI
For assay [13], the system named is HEK293. Nature of the assay: Fluorescence-based counterscreen for potentiators or agonists of NPY-Y2: cell-based high-throughput dose response assay to identify inhibitors of cyclic nucleotide gated ion channel (CNGC) activity. In this assay, the parental HEK293 cell line transfected with a cyclic-nucleotide gated ion channel (CNGC)-based cAMP sensor is used to measure inhibition of isoproterenol-induced CNGC activity by test compound. Particulars: Homo sapiens. The class given is functional.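 Also: stimulus is 1 µM isoproterenol at EC100 plus PDE inhibitor Ro 20-1724 at 25 µM.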

The target of assay [14] is Eukaryotic translation initiation factor 4H (Homo sapiens, UniProt Q15056). Nature of the assay: human eIF4H binding inhibitors, primary screen, translation initiation inhibitor project, biochemical, uHTS, fluorescence polarization (AID 2012).
Assay [15] concerns the target Polyadenylate-binding protein 1 (Homo sapiens, UniProt P11940). Nature of the assay: PABP poly(A) RNA binding inhibitors, primary screen, biochemical, fluorescence polarization, uHTS (AID 2014).

Molecules are shown by their SMILES. The source made the active and inactive calls.

Ion channel NompC, sequence (Q7T1G6 whole entry): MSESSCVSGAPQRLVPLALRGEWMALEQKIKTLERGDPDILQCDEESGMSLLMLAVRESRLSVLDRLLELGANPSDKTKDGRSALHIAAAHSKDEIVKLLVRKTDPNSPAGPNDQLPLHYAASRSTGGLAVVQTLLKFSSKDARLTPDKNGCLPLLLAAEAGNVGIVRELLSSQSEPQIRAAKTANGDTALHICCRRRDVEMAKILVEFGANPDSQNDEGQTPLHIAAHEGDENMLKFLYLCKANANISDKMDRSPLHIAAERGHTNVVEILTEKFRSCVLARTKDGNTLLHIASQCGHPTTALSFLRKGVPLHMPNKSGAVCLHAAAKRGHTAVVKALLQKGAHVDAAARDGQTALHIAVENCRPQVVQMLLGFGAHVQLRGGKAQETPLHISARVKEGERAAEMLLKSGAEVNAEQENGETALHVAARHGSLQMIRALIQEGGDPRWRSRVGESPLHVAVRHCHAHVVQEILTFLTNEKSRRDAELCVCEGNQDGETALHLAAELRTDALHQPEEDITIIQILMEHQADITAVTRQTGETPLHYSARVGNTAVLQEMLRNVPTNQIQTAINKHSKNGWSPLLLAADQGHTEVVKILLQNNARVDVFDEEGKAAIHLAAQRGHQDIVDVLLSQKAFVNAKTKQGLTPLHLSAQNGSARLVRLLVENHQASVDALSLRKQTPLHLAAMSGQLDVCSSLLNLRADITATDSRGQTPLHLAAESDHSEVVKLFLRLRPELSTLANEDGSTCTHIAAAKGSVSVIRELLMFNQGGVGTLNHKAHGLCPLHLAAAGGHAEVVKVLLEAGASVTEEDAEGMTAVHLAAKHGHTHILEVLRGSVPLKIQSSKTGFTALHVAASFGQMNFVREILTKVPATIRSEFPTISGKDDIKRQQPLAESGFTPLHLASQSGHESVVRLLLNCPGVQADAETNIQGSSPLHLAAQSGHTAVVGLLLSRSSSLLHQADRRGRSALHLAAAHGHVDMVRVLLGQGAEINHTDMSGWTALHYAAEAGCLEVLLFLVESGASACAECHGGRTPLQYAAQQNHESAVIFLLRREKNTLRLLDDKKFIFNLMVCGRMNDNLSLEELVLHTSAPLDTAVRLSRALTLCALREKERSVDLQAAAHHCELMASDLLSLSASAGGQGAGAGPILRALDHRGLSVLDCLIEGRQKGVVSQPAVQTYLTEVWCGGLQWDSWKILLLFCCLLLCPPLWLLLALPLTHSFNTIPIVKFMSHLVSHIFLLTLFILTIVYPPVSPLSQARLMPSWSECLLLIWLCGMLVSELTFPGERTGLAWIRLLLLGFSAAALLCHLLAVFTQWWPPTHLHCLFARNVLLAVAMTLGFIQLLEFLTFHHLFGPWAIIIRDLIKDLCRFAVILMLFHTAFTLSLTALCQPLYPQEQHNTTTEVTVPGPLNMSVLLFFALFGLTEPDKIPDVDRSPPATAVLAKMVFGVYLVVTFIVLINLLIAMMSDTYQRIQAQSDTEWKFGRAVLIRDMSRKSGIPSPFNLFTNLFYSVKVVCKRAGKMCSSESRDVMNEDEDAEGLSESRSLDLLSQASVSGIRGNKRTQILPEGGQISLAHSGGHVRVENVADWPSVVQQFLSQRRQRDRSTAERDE
Polyadenylate-binding protein 1, sequence (P11940 whole entry): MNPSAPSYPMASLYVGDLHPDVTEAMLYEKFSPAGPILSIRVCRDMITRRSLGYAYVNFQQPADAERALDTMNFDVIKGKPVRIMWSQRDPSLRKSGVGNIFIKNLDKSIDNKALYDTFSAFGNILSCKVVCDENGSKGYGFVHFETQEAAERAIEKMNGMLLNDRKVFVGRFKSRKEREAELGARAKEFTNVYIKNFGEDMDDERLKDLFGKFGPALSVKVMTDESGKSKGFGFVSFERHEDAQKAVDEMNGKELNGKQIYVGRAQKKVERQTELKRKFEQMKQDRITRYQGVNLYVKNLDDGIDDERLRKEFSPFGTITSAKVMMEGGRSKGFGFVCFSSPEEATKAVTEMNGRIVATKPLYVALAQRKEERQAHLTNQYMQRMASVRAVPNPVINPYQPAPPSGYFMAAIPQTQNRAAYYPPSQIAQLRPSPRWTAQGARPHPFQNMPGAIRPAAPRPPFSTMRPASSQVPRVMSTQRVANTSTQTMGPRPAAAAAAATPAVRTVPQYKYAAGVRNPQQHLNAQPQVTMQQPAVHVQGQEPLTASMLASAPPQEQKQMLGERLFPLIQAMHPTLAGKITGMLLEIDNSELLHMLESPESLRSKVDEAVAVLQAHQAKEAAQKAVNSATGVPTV

`CC1CCN(S(=O)(=O)c2ccc3ccccc3c2)CC1`: the concentration giving a half-maximal response (EC50) was > 29.9 µM (not active) in assay [1] and 2.83 µM (active) in assay [2].
Take `CN1CCN(C2=C(Cl)C(=O)C(c3cnc(N4CCCCC4)s3)=C(Cl)C2=O)CC1`: the EC50 in assay [3] was 10.1 µM (active); in assay [5], 8.57 µM (active); in assay [8], 1.29 µM (active); in assay [9] it was 4.18 µM (active); in assay [10], 5.11 µM (active). Besides, the AC50 in [4] is > 380 µM (inactive). Moreover, the IC50 is 19.2 µM (inactive) in assay [6] and 0.63 µM (not active) in [7].
Turning to `CC(C)c1nnc(NC(=O)CCC(=O)Nc2ccc3c[nH]nc3c2)s1`, the EC50 in [11], in assay [12] and in assay [13] was > 35.4 µM (not active) throughout.
On to `O=C(C1Cc2ccccc2CN1S(=O)(=O)c1ccc(F)cc1)N1CCCCC1` (configuration not stated), for which the EC50 is 13.3 µM (not active) in [1] and 2.06 µM (active) in assay [2].
Take `C[N+]1=C2c3ccccc3N=CN2CC1`: the values for the IC50 in assay [14] and in [15] were > 100 µM (inactive) and 4.47 µM (active), respectively.
